In this experiment the test system is Acidithiobacillus ferrooxidans AfArsR variant C102S (biosensor co-cultured with Burkholderia sp. MR1). Format: cell-based.

For the compound `O=[As](O)(O)c1ccccc1` [PAA, phenylarsonic acid], the “response of co-cultured biosensor” value is on record as “it didn't”.
Consider `O=[N+]([O-])c1cc([As](=O)(O)O)ccc1O` [Rox(V), 4-hydroxy-3-nitrobenzenearsonic acid], for which the “response of co-cultured biosensor” value is reported as “it didn't”.

(Values after US10640802B2 (priority 2012, dated 2020).)
